Laboratory results from article PMC12703741, “Light-Activated Metal-Dependent Protein Degradation: A Heterobifunctional Ruthenium(II) Photosensitizer Targeting New Delhi Metallo-β-lactamase 1” (Journal of the American Chemical Society, 2025).
Like-named read-outs stand apart in the source and are kept apart here.

Assays:
[1] = archetypal comparison complex; cited from earlier work
[2] = parameters: method as in earlier work; conditions: reference for 1O2 sensitization; ref 4 (SI), Tanielian et al., 1996; cited from earlier work
[3] = target: T1, NDM-1 (Klebsiella pneumoniae, UniProt C7C422); conditions: read-out: Km(Nitrocefin); previously reported; ref 5 (SI); cited from earlier work
T1 sequence (C7C422 31-270 limits assumed): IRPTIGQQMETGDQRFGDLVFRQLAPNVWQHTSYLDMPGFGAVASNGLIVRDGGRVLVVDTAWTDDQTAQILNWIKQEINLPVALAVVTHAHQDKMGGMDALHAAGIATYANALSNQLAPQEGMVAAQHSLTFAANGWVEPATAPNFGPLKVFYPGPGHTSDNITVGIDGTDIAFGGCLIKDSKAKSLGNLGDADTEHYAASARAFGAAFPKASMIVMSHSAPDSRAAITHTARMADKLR

[4] = target: T1, NDM-1; conditions: read-out: Km(Nitrocefin); NDM-1 2 nM, 25 °C
Excerpt: (4 pictures or pasted objects on this page, not shown here)

Row | SMILES | Luminescence lifetime of excited state [1] | 1O2 quantum yield (ΦΔ) [2] | Km [3] | Km [4]
1 | [Cl][Ru][Cl].c1ccc(-c2ccccn2)nc1.c1ccc(-c2ccccn2)nc1.c1ccc(-c2ccccn2)nc1 [[Ru(bpy)3]Cl2, tris(2,2’-bipyridyl)ruthenium(II) dichloride] | 510 ns | 0.87 |  | 
2 | O=C(Cc1cccs1)N[C@@H]1C(=O)N2C(C(=O)O)=C(/C=C/c3ccc([N+](=O)[O-])cc3[N+](=O)[O-])CS[C@H]12 [nitrocefin] |  |  | 3.2 µM | 3.1 ± 0.5 µM
